Results as given in US4232121A, “Process for selecting methine dyes which inhibit cell growth” (Eastman Kodak Company, priority 1978, dated 1980).
Read-outs that look alike come from different tables or passages of the source.

Experiments:
[1] = tested on: Bacillus pumilus (K-1)
Description: This can be accomplished by contacting a given concentration of the dye with the cells, removing the cells from the dye solution and then comparing the optical density (at λmax) of the remaining dye solution with a control containing the original concentration of the dye. The percentage decrease in optical density indicates the percentage of dye which has been bound to the cells.
The culture was collected by centrifugation at 5,000×g. for 10 minutes, and the resultant pellet was washed several times in cold 0.05 M potassium phosphate buffer, pH 7.0. The pellet was resuspended in the buffer solution to a final optical density of 1.0 at 620 nm as measured with a Bausch and Lomb Spectronic 20.
One-tenth ml of dye solution (1 mg/ml in methanol) was added to a tube containing 5 ml of cell suspension described above and a control tube containing 0.05 M potassium phosphate buffer, pH 7.0. All tubes were well agitated using a Vari-Whirl Mixer (Will Scientific Co.) and then centrifuged at 10,000×g. for 10 minutes.
The percent binding of dye to the cells for each dye, was determined by comparison of the density at λmax of the control supernatant sample with the density at λmax of the supernatant of the cell sample.

[2] = not told
Description: If a published reduction potential is not available, suitable techniques for measuring reduction potential are available and can be used. […] This technique involves measurement at 20° C., of an approximately 10^-4 molar solution of the dye in an electrolyte, such as methanol which is 0.05 molar in lithium chloride, using a dropping mercury electrode. The potential values are reported by reference to a silver-silver chloride electrode in a saturated solution of potassium chloride at 20° C.

[3] = tested on: Bacillus pumilus strain K-1; assay: Inhibition of bacterial growth, filter paper on inoculated agar plates; assay type: cell-based
Description: Nutrient broth was prepared by mixing 8 grams of BACTO dehydrated nutrient broth per liter of distilled water. […] Samples of the nutrient broth were then inoculated with Bacillus pumilus strain K-1 culture. […]
Nutrient agar was prepared by mixing 23 grams of BACTO nutrient agar per liter of distilled water. The nutrient agar was sterilized in the same way as the nutrient broth. After it has cooled to about 45° C. 250 ml of the nutrient agar solution was aeseptically inoculated with 5 ml of the Bacillus pumilus, K-1 culture prepared in (A), above. Plates of the inoculated nutrient agar were then poured and allowed to harden.
[…] To minimize possible photocatalyzed reactions of the dyes, all preparations were performed under yellow lights and all incubations were performed in the dark.
Schleider and Schuell #740-E filter paper (12.7 mm diameter) was dipped in the dye solution, touched to the side of the beaker to removed excess dye, and placed in the center of the inoculated agar plates (prepared in (B) above). […] The plates were then examined to determine if bacterial growth had been affected by the dye-containing filter paper. […]
Control plates were prepared in which the filter paper contained methanol or a 0.2 molar aqueous solution of phenol. […]

[4] = tested on: Bacillus megaterium; assay: Inhibition of bacterial growth, filter paper technique; assay type: cell-based; conditions: Table VIII, Tryptic Soy, 37° C./48 hrs; for zone of inhibition at 1000 µM: Priestia megaterium, read-out: Area of Inhibition (diameter)
Description: (§1) Schleider and Schuell #740-E filter paper (12.7 mm diameter) was dipped in the dye solution, touched to the side of the beaker to removed excess dye, and placed in the center of the inoculated agar plates (prepared in (B) above). The plates were then incubated at 26° C. for […]. The plates were then examined to determine if bacterial growth had been affected by the dye-containing filter paper. With certain dyes bacterial growth was inhibited in a circular area around the filter paper. With other dyes no such area of inhibition was observed.
(§2) Cultures of various gram-negative and gram-positive bacteria were prepared in nutrient and Tryptic Soy Agar and plates were poured as described in Example 1. Methanolic solutions of cyanine dyes were prepared at 10^-3 molar and applied to the plates using the filter paper technique described in Example 1. Control plates were prepared in which the filter paper contained methanol or a 0.2 molar aqueous solution of phenol. The plates were then incubated at 26° C. or 37° C. for forty-eight hours.

[5] = tested on: Proteus vulgaris; assay: as above; assay type: cell-based; conditions: Table VIII, 37° C./48 hrs; for Area of Inhibition (diameter): 10^-3 molar, Gram -
Description: as §1, §2

[6] = tested on: Micrococcus flavus; assay: as above; assay type: cell-based
Description: as §1, §2

[7] = tested on: Enterobacter aerogenes; assay: as above; assay type: cell-based; conditions: Table VIII, 37° C./48 hrs; for Area of Inhibition (diameter): 10^-3 molar, Gram -
Description: as §1, §2

[8] = tested on: Micrococus luteus; assay: as above; assay type: cell-based; conditions: for zone of inhibition at 1000 µM: read-out: Area of Inhibition (diameter)
Description: as §1, §2

[9] = tested on: Alcaligenes faecalis; assay: as above; assay type: cell-based; conditions: for Area of Inhibition (diameter): Table VIII, 10^-3 molar, Gram -, 37° C./48 hrs
Description: as §1, §2

[10] = tested on: Escherichia coli, Strain B; assay: as above; assay type: cell-based; conditions: Table VIII, 37° C./48 hrs; for Area of Inhibition (diameter): 10^-3 molar, Gram -
Description: as §1, §2

[11] = tested on: Bacillus cereus; assay: as above; assay type: cell-based
Description: as §1, §2

[12] = tested on: Bacillus subtilis; assay: as above; assay type: cell-based; conditions: for zone of inhibition at 1000 µM: Table VIII, 10^-3 molar, Gram +, 26° C./48 hrs, read-out: Area of Inhibition (diameter)
Description: as §1, §2

[13] = tested on: Sea Urchin Eggs; assay: Inhibition of cell division in fertilized sea urchin eggs; assay type: cell-based; conditions: arbitrary scale 0 to 5, 5 most active; dye 10^-5 to 10^-6 molar, 60 minutes after fertilization
Description: To suspensions in filtered sea water of fertilized sea urchin eggs there was added, three minutes after fertilization, methanolic solutions of the dyes in an amount sufficient to yield a final concentration of dye of between 10^-5 and 10^-6 molar. The final concentration of methanol was, at a maximum 1×10^-4 molar. The eggs were visually observed at 60 minutes after fertilization to determine if cell division and the formation of mitotic apparatus had been inhibited. A rating was assigned based on the concentration of dye required to inhibit cell division and synthesis of DNA.

[14] = Oxidation potential (Eox) of the dye; assay type: physicochemical; conditions: Tables I, II, V, VI
[15] = Bacillus pumilus, K1, 48 h, Table VIII, 10^-3 molar, Nutrient, 37° C./48 hrs, read-out: Area of Inhibition (diameter)
[16] = Bacillus pumilus, K1, Table IX, 10^-3 M, read-out: Diameter of Inhibition
[17] = Table VIII, 10^-3 molar, Gram +, 26° C./48 hrs
[18] = Table II, 10^-4 molar, 26° C., forty-eight hours
[19] = Bacillus pumilus, K1, read-out: Diameter of Inhibition
[20] = 48 h, read-out: Area of Inhibition (diameter), control

## CCN1C(=Cc2oc3ccccc3[n+]2CC)Oc2ccccc21 [Dye 1]
[1]
  % Bound: 33.6%
[2]
  ER: -1.69
  reduction potential (ER): -1.69 volts
[3]
  Activity Rating: 39
[3]; [15]
  zone of inhibition at 1000 µM: 18 mm
[3]; [16]
  zone of inhibition at 1000 µM: 18 mm
[4]; 10^-3 molar, Gram +
  zone of inhibition at 1000 µM: 17 mm
[5]
  Area of Inhibition (diameter): No
[6]; [17]
  Area of Inhibition (diameter): No
[7]
  Area of Inhibition (diameter): No
[8]; [17]
  zone of inhibition at 1000 µM: 22 mm
[9]
  Area of Inhibition (diameter): No
[10]
  Area of Inhibition (diameter): No
[11]; [17]
  Area of Inhibition (diameter): No
[12]
  zone of inhibition at 1000 µM: 13 mm

## CCN1C(=CC=CC=Cc2oc3ccccc3[n+]2CC)Oc2ccccc21 [Dye 21]
[1]
  % Bound: 99.4%
[2]
  ER: -.83
  reduction potential (ER): -0.83 volts
[3]
  Activity Rating: 66
[3]; [15]
  zone of inhibition at 1000 µM: 21 mm
[3]; [16]
  zone of inhibition at 1000 µM: 21 mm
[4]; 10^-3 molar, Gram +
  zone of inhibition at 1000 µM: 18 mm
[5]
  Area of Inhibition (diameter): No
[6]; Micrococcus flavus, Table VIII, 10^-3 molar, Gram +, 26° C./48 hrs, read-out: Area of Inhibition (diameter)
  zone of inhibition at 1000 µM: 18 mm
[7]
  Area of Inhibition (diameter): No
[8]; [17]
  zone of inhibition at 1000 µM: 14 mm
[9]
  Area of Inhibition (diameter): No
[10]
  Area of Inhibition (diameter): No
[11]; Bacillus cereus, Table VIII, 10^-3 molar, Gram +, 26° C./48 hrs, read-out: Area of Inhibition (diameter)
  zone of inhibition at 1000 µM: 14 mm
[12]
  zone of inhibition at 1000 µM: 16 mm

## CCN1C(=CN=Nc2sc3ccccc3[n+]2CC)Sc2ccccc21 [Dye 26]
[13]
  Sea Urchin Eggs Activity: +2
[1]
  % Bound: 56.3%
[2]
  reduction potential (ER): -0.64 volts
[3]
  Activity Rating: 8
[3]; Bacillus pumilus, K1, Table II, 10^-4 molar, 26° C., forty-eight hours, read-out: Diameter of Inhibition
  zone of inhibition at 100 µM: 14.5 mm
[3]; Bacillus pumilus, K1, Table IX, 10^-4 M, read-out: Diameter of Inhibition
  zone of inhibition at 100 µM: 14.5 mm
[14]
  Eox: > +1.00

## CCN1C(=CC=Cc2sc3cc4ccccc4nc3[n+]2CC)Sc2cc3ccccc3nc21 [Dye 27]
[13]
  Sea Urchin Eggs Activity: 0
[2]
  reduction potential (ER): -0.63 volts
[3]
  Activity Rating: 0
[3]; [18]
  Diameter of Inhibition: None
[3]; Table IX, 10^-4 M
  Diameter of Inhibition: None
[14]
  Eox: > +1.00

## Cn1c(-c2ccccc2)c(C=Cc2sc3cc([N+](=O)[O-])c(Cl)cc3[n+]2C)c2ccccc21 [Dye 31]
[13]
  Sea Urchin Eggs Activity: 0
[1]
  % Bound: 54.2%
[2]
  reduction potential (ER): -0.41 volts
[3]
  Activity Rating: 0
[3]; [18]
  Diameter of Inhibition: None
[3]; Table IX, 10^-4 M
  Diameter of Inhibition: None
[14]
  Eox: > +1.00

## CC[n+]1c(C=Cc2c(-c3cccnc3)n(C)c3ccccc23)sc2cc([N+](=O)[O-])ccc21 [Dye 32]
[13]
  Sea Urchin Eggs Activity: +2
[1]
  % Bound: 61.0%
[2]
  reduction potential (ER): -0.32 volts
[3]
  Activity Rating: 0
[3]; [18]
  Diameter of Inhibition: None
[3]; Table IX, 10^-4 M
  Diameter of Inhibition: None
[14]
  Eox: > +1.00

## Cn1c(-c2ccccc2)c(C=CC=C2C(c3ccccc3)=[N+](C)c3ccccc32)c2ccccc21 [Dye 33]
[13]
  Sea Urchin Eggs Activity: 0
[1]
  % Bound: 83.7%
[2]
  reduction potential (ER): -0.20 volts
[3]
  Activity Rating: 0
[3]; Table I, 10^-4 molar, 26° C., fifty hours, dark
  Diameter of Inhibition: None
[3]; [18]
  Diameter of Inhibition: None
[3]; Table IX, 10^-3 M
  Diameter of Inhibition: None
[3]; Table IX, 10^-4 M
  Diameter of Inhibition: None
[3]; Table VIII, 10^-3 molar, Nutrient, 37° C./48 hrs
  Area of Inhibition (diameter): No
[4]; 10^-3 molar, Gram +
  Area of Inhibition (diameter): No
[5]
  Area of Inhibition (diameter): No
[6]; [17]
  Area of Inhibition (diameter): No
[7]
  Area of Inhibition (diameter): No
[8]; [17]
  Area of Inhibition (diameter): Slight
[9]
  Area of Inhibition (diameter): No
[10]
  Area of Inhibition (diameter): No
[11]; [17]
  Area of Inhibition (diameter): No
[12]
  zone of inhibition at 1000 µM: 13 mm
[14]
  Eox: > +1.00

## Oc1ccccc1 [Phenol, reference compound]
[3]; Bacillus pumilus, K1, 48 h, read-out: Area of Inhibition (diameter), control
  zone of inhibition at 200000 µM: 22 mm
[3]; [19]
  zone of inhibition at 53000 µM: 18 mm
  zone of inhibition at 106000 µM: 22 mm
  zone of inhibition at 213000 µM: 26 mm
[4]; 0.2 M phenol
  Area of Inhibition (diameter), control: Slight
[5]; 0.2 M phenol
  Area of Inhibition (diameter), control: No
[6]; Micrococcus flavus, 48 h, read-out: Area of Inhibition (diameter), control
  zone of inhibition at 200000 µM: 16 mm
[7]; 0.2 M phenol
  Area of Inhibition (diameter), control: No
[8]; [20]
  zone of inhibition at 200000 µM: 15 mm
[9]; Alcaligenes faecalis, 48 h, read-out: Area of Inhibition (diameter), control
  zone of inhibition at 200000 µM: 15 mm
[10]; 0.2 M phenol
  Area of Inhibition (diameter), control: No
[11]; Bacillus cereus, 48 h, read-out: Area of Inhibition (diameter), control
  zone of inhibition at 200000 µM: 14 mm
[12]; [20]
  zone of inhibition at 200000 µM: 13 mm
